Data from US5556853A, “Epoxysuccinic acid derivatives” (Takeda Chemical Industries, Ltd., priority 1993, dated 1996).
Counter-ions that a name gives are not always drawn.

What was measured:
[1] = biological target: T1, human recombinant cathepsin L (Homo sapiens, UniProt P07711); experiment: Determination of Cathepsin L Inhibitory Activity; assay type: biochemical; conditions: Z-Phe-Arg-7MCA substrate, pH 5.5, 37° C., 20 minutes, read-out: Inhibitory activity potency IC50 Cathepsin L (converted)
T1 construct: made in house; host or cells: mouse myeloma Sp2/0 cells transformed with pTBN-HCLneo (Sp-HCL26), secreted into the culture supernatant
Description: To 75 μl of a reaction mixture containing 1 ng of human recombinant cathepsin L (as produced in Reference Examples 1 through 7 below), 2 μM dithiothreitol (hereinafter referred to as DTT), 1 mM ethylenediaminetetraacetate disodium salt, 0.1M sodium acetate buffer (pH 5.5) and various concentrations of sample, 25 μl of 20 μM benzyloxycarbonyl-L-phenylalanyl-L-arginine-4-methylcoumaryl-7-amide (hereinafter referred to as Z-Phe-Arg-7MCA, produced by Peptide Institute, Inc.) was added to initiate the reaction. After incubation at 37° C. for 20 minutes, 100 μl of a reaction stopper solution containing 100 mM sodium monochloroacetate was added. The amount of liberated 4-methyl-7-aminocoumarin was determined at an excitation wavelength of 365 nm and a fluorescence wavelength of 450 nm, using a fluorophotometer (FCA; produced by Baxter). The sample concentration required to cause 50% inhibition was expressed as the IC50 value, with the fluorescence value obtained from the same reaction in the absence of the sample taken as 100%.

cathepsin B = biological target: T2, cathepsin B (Homo sapiens, UniProt P07858); experiment: Determination of Cathepsin B Inhibitory Activity; assay type: biochemical; conditions: cathepsin B (Sigma), Z-Phe-Arg-7MCA substrate, pH 5.5, 37° C., 20 minutes; read-out: Inhibitory activity potency IC50 Cathepsin B (converted)
T2 construct: purchased Sigma
Description: To 75 μl of a reaction mixture containing 30 ng of cathepsin B (produced by Sigma), 2 μM DTT, 1 mM ethylenediaminetetraacetate disodium salt, 0.1M sodium acetate buffer (pH 5.5) and various concentrations of sample, 25 μl of 20 μM Z-Phe-Arg-7MCA was added to initiate the reaction. After reaction mixture incubation at 37° C. for 20 minutes, 100 μl of a reaction stopper solution containing 100 mM sodium monochloroacetate was added. The amount of liberated 4-methyl-7-aminocoumarin was determined at an excitation wavelength of 365 nm and a fluorescence wavelength of 450 nm, using a fluorophotometer. The sample concentration required to cause 50% inhibition was expressed as the IC50 value, with the fluorescence value obtained from the same reaction in the absence of the sample taken as 100%.

[2] = test system: bone resorption as enhanced by PTH (parathyroid hormone) in femurs from female BALB/c mice; experiment: Determination of Bone Resorption Suppressive Activity (PTH-enhanced, calcium release from cultured femurs); assay type: cell-based; conditions: 168 h; test compound 10 μg/ml, PTH 1 μM, 7 days, mouse femurs
Description: Compounds (I), (XI) and (XXI) or salts thereof excellently suppress bone resorption. Their suppressive action against bone resorption as enhanced by PTH (parathyroid hormone) was determined by the method described below.
Femurs were aseptically isolated from female BALB/c mice at 8-10 weeks of age. After the bone marrow cavity was washed with a Ham F12 medium containing 10% (w/w) thermally inactivated fetal calf serum, 100 unit/ml penicillin G and 100 unit/ml streptomycin (hereinafter referred to as culture broth), each femur was added to 1 ml of the culture broth and precultured for 3 hours at 37° C. in the presence of 5% carbon dioxide and 95% air. Each bone was transferred to 1 ml of the culture broth supplemented with PTH (produced by Peptide Institute, Inc., final concentration 1 μM) and the test compound (final concentration 10 μg/ml) and cultured for 7 more days, after which the total calcium content in the culture broth was determined using Calcium E-Test Wako (produced by Wako Pure Chemical Industries). The bone resorption suppressive activity of the test compound was calculated using the following equation:
Bone resorption suppressive activity (%)=100×(Cp-Cs)/(Cp-Cc)
Cc: Total calcium content in the culture broth containing neither PTH nor test compound
Cp: Total calcium content in the culture broth containing PTH […]

mice = experiment: Toxicity Study; assay type: in vivo; conditions: intraperitoneally or orally administered at 400 mg/kg
Description: TAN-1756A caused no death in mice when it was intraperitoneally or orally administered at 400 mg/kg.
TAN-1803 monohydrochloride caused no death in mice when it was intraperitoneally or orally administered at 400 mg/kg.

T1 sequence (P07711 114-333): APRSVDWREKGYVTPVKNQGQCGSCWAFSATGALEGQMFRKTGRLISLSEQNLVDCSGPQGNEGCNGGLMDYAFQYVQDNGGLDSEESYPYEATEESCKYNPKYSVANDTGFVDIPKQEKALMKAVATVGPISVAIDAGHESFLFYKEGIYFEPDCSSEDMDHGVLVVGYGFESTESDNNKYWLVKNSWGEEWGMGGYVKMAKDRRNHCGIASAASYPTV

SMILES	IC50 [1] [nM]	IC50 (cathepsin B) [nM]	activity at 10 µg/mL [2] [%]	death in mice (mice)
O=C(NCCCCNC(=O)[C@H](Cc1ccccc1F)NC(=O)[C@H]1O[C@@H]1C(=O)O)OCc1ccccc1 [Compound 37]	1.99	27.9		
CC(C)C[C@H](NC(=O)[C@H]1O[C@@H]1C(=O)O)C(=O)N(CCCN)CCCCN [Compound 92, N-{N-[(2S,3S)-3-trans-carboxyoxirane-2-carbonyl]-L-leucyl}-N-(3-aminopropyl)-1,4-diaminobutane]			149	no death
NCCCCNC(=O)[C@H](Cc1ccccc1)NC(=O)[C@H]1O[C@@H]1C(=O)O [Compound 1, N-{N-[(2S,3S)-3-trans-carboxyoxirane-2-carbonyl]-L-phenylalanyl}-1,4-diaminobutane]			150	no death
O=C(O)[C@H]1O[C@@H]1C(=O)N[C@@H](Cc1ccc2ccccc2c1)C(=O)N1CCOCC1 [Compound 82, N-{N-[(2S,3S)-3-trans-carboxyoxirane-2-carbonyl]-3-(2-naphthyl)-L-alanyl}morpholine monosodium salt]	5.02	85.3		
NCCCCCCCCNC(=O)[C@H](Cc1ccccc1)NC(=O)[C@H]1O[C@@H]1C(=O)O [Compound 23, N-(N-[(2S,3S)-3-trans-carboxyoxirane-2-carbonyl]-L-phenylalanyl}-1,8-diaminooctane]	4.93	59.2		
